Where two headings read alike, the source gives them in different places.
Key:
[1] = type: in vivo, Macaca nemestrina
[2] = Equilibrium dialysis of DcNP-associated versus free drug; type: physicochemical; settings: TLC-ART101, equilibrium dialysis, 6-8 kDa cut-off membrane
[3] = Free ARV compartmental models; type: in vivo, Macaca nemestrina; settings: for CL/F: calculated from population PK parameters; for half-life / k el / Vd/F: male, monkey, sc
[4] = cited from earlier work
[5] = in vivo; settings: macaque, sc
[6] = TLC-ART101 mechanism-based pharmacokinetic; settings: for k21, lymphatic entry rate constant, fast pathway / k31, lymphatic entry rate constant, intermediate pathway / k41, lymphatic entry rate constant, slow pathway / tlag2, lymphatic transit lag time, intermediate pathway / tlag1, lymphatic transit lag time, fast pathway / V5_DcNP, apparent volume of distribution of DcNP-associated ARV / k75, rate constant for release of free ARV from DcNPs in plasma / tlag3, lymphatic transit lag time, slow pathway: TLC-ART101; for k21, lymphatic entry rate constant, fast pathway / k31, lymphatic entry rate constant, intermediate pathway / k41, lymphatic entry rate constant, slow pathway: fixed after manual adjustment
[7] = rat, in vivo; cited from earlier work
[8] = Free formulation, single SC dose, macaques, geometric mean (%CV), N=3
[9] = TLC-ART101, single SC dose, macaques, geometric mean (%CV), N=4
[10] = Free formulation, parameter value (%CV)
[11] = parameter value (%CV), listed as TLC-ART101 Ritonavir
[12] = TLC-ART101 model, free submodel, parameter value (%CV)
[13] = parameter value (%CV), listed as TLC-ART101 Tenofovir
[14] = TLC-ART101 model, free submodel

Cc1cccc(C)c1OCC(=O)N[C@@H](Cc1ccccc1)[C@@H](O)C[C@H](Cc1ccccc1)NC(=O)[C@H](C(C)C)N1CCCNC1=O [Lopinavir]
CL/F, apparent total clearance [1, 8]: 4.64 (14) L/[hr•kg]
Terminal t1/2 ([1]; Free formulation, single SC dose, macaques, geometric mean (%CV), N=3, listed as Lopinavir (LPV)): 8.65 (28) hr
CL/F, apparent total clearance [1, 9]: 0.85 (85) L/[hr•kg]
AUC(0-t) ([1]; male, monkey, plasma, sc): 4350 ng·h/mL
mean fraction of DcNP-associated drug [2]: 92.2%
CL/F ([3]; Free formulation, listed as Free Lopinavir): 4.24 L/[hr•kg]
CL/F ([3]; Free formulation, listed as LPV): ~4 L/[hr•kg]
k21, absorption rate constant [3, 10]: 0.7120 (20) 1/hr
half-life ([3]; plasma): 8.85 h
k el ([3]; plasma): 2.18e-05 s⁻¹
Terminal t1/2 ([4]; monkey, in vivo, sc): 476.94 (173) hr

CC(C)c1nc(CN(C)C(=O)N[C@H](C(=O)N[C@@H](Cc2ccccc2)C[C@H](O)[C@H](Cc2ccccc2)NC(=O)OCc2cncs2)C(C)C)cs1 [Ritonavir]
Kp [5]: 7.4
CL/F, apparent total clearance [1, 8]: 4.23 (15) L/[hr•kg]
Terminal t1/2 ([1]; Free formulation, single SC dose, macaques, geometric mean (%CV), N=3, listed as Ritonavir (RTV)): 7.99 (38) hr
CL/F, apparent total clearance [1, 9]: 1.43 (56) L/[hr•kg]
AUC(0-t) ([1]; male, monkey, plasma, sc): 1370 ng·h/mL
mean fraction of DcNP-associated drug [2]: 91.1%
k21, lymphatic entry rate constant, fast pathway [6]: 0.2361 (-) 1/hr
k31, lymphatic entry rate constant, intermediate pathway [6]: 0.1881 (-) 1/hr
k41, lymphatic entry rate constant, slow pathway [6]: 0.0198 (-) 1/hr
tlag2, lymphatic transit lag time, intermediate pathway ([6]; parameter value (%CV)): 38.83 (13) hr
tlag1, lymphatic transit lag time, fast pathway ([6]; parameter value (%CV), listed as RTV): ~2 h
V5_DcNP, apparent volume of distribution of DcNP-associated ARV [6, 11]: 10.09 (27) L/kg
k75, rate constant for release of free ARV from DcNPs in plasma [6, 11]: 0.4336 (5) 1/hr
tlag1, lymphatic transit lag time, fast pathway [6, 11]: 2.13 (51) hr
tlag3, lymphatic transit lag time, slow pathway [6, 11]: 181.87 (11) hr
V7_Free [6, 12]: 67.94 (3) L/kg
k07, clearance rate constant of free ARV from central compartment [6, 12]: 0.0962 (4) 1/hr
CL/F ([3]; Free formulation, listed as Free Ritonavir): 3.90 L/[hr•kg]
CL/F ([3]; Free formulation, listed as RTV): ~4 L/[hr•kg]
k21, absorption rate constant [3, 10]: 0.6242 (29) 1/hr
Vd/F ([3]; plasma): 42.4 L/kg
half-life ([3]; plasma): 7.54 h
k el ([3]; plasma): 2.55e-05 s⁻¹
AUC0-336h, area under the plasma drug concentration-time curve [4, 9]: 4.80 (57) hr•μg/mL
Terminal t1/2 [4, 9]: 44.06 (46) hr

C[C@H](Cn1cnc2c(N)ncnc21)OCP(=O)(O)O [Tenofovir]
Kp [5]: 3.01
CL/F, apparent total clearance [1, 8]: 0.72 (4) L/[hr•kg]
MBRT0-24h, mean body residence time [1, 8]: 2.61 (12) hr
CL/F, apparent total clearance [1, 9]: 0.02 (15) L/[hr•kg]
MBRT0-336h, mean body residence time [1, 9]: 102.68 (7) hr
MBRT0-24h fold shorter than those of free LPV and RTV ([1]; free formulation): ~5 fold
plasma level as % of peak ([1]; free formulation, by 10 hr): ~1%
AUC(0-t) ([1]; male, monkey, plasma, sc): 14400 ng·h/mL
Tmax ([1]; male, monkey, plasma, sc): ~1 h
half-life ([1]; male, monkey, plasma, sc, Terminal t1/2, Free formulation, single SC dose, macaques, geometric mean (%CV), N=3): 8.01 h
mean fraction of DcNP-associated drug [2]: 11.2%
k21, lymphatic entry rate constant, fast pathway [6]: 0.1300 (-) 1/hr
k31, lymphatic entry rate constant, intermediate pathway [6]: 0.1588 (-) 1/hr
k41, lymphatic entry rate constant, slow pathway [6]: 0.1779 (-) 1/hr
V5_DcNP, apparent volume of distribution of DcNP-associated ARV ([6]; parameter value (%CV)): 0.17 (22) L/kg
tlag2, lymphatic transit lag time, intermediate pathway ([6]; parameter value (%CV)): 24.04 (19) hr
tlag1, lymphatic transit lag time, fast pathway ([6]; parameter value (%CV), listed as TFV): 0.1 h
k75, rate constant for release of free ARV from DcNPs in plasma [6, 13]: 0.0164 (15) 1/hr
tlag1, lymphatic transit lag time, fast pathway [6, 13]: 0.10 (-) hr
tlag3, lymphatic transit lag time, slow pathway [6, 13]: 122.06 (3) hr
k76, absorption rate constant of free ARV from SC site [6, 14]: 1.4201 (-) 1/hr
k87 [6, 14]: 0.0298 (-) 1/hr
V7_Free [6, 12]: 1.66 (18) L/kg
k07, clearance rate constant of free ARV from central compartment [6, 12]: 0.5824 (2) 1/hr
k78 [6, 12]: 0.0738 (0) 1/hr
k23, peripheral to central exchange rate constant ([3]; Free formulation, 2CM): 0.0738 (-) 1/hr
Vβ/F ([3]; Free formulation, 2CM, secondary parameter): 8.65 L/kg
k32, central to peripheral exchange rate constant ([3]; Free formulation, 2CM, parameter value (%CV)): 0.0298 (0) 1/hr
CL/F ([3]; Free formulation): 0.60 L/[hr•kg]
k21, absorption rate constant [3, 10]: 2.3423 (38) 1/hr
k el ([3]; in vivo): 0.000164 s⁻¹
Vd/F ([3]; in vivo, 10.6 mg/kg): 1.44 L/kg
Terminal t1/2 [4, 9]: 65.33 (11) hr
AUC0-336h, area under the plasma drug concentration-time curve ([4]; in vivo, sc): 416.55 (15) hr•μg/mL

COc1cccc2c1C(=O)c1c(O)c3c(c(O)c1C2=O)C[C@@](O)(C(=O)CO)C[C@@H]3O[C@H]1C[C@H](N)[C@H](O)[C@H](C)O1 [doxorubicin]
% of SC dose recovered in the blood [7]: 64-74%
% of SC dose recovered in the lymph [7]: 0.063-2%

CN(Cc1cnc2nc(N)nc(N)c2n1)c1ccc(C(=O)N[C@@H](CCC(=O)O)C(=O)O)cc1 [methotrexate]
% of SC dose recovered in the blood [7]: 64-74%
% of SC dose recovered in the lymph [7]: 0.063-2%

Source: publication PMC5878144 (Journal of controlled release : official journal of the …, 2018)
